Results published in the NIST ThermoML archive (doi:10.1016/j.jct.2016.11.029).
Numbers after ± are expanded uncertainties.

How the values were obtained:
[1] = Crystal; DTA
[2] = Molar enthalpy of transition or fusion; settings: Crystal; DSC

- Normal melting temperature [1]: 199.80 ± 1.1 °C
- Molar enthalpy of transition or fusion [2]: 21.6 ± 0.92 kJ/mol
SMILES: Clc1ccc2c(c1)Nc1ccccc1S2 [2-chlorophenothiazine]
